Experiments:
Format in all cases: in vivo, human
[1] = system: subjects with gambling disorder; test: Problem Gambling Severity Index (PGSI), Example 7; conditions: for PGSI score at 2-week follow up / PGSI classification at two-week follow up: after 100 mg racemic ketamine sublingual; for PGSI score, pre-administration / PGSI classification, pre-administration: baseline before 100 mg racemic ketamine sublingual; for % change in PGSI score: pre-administration to 2-week follow up, 100 mg racemic ketamine sublingual
Protocol: A study was completed on the use of ketamine to treat gambling disorder. Subjects were assessed for gambling disorder using the PGSI. Subjects were included if they received a PGSI score greater than 3. Five subjects in total were included (G1-G5). All five subjects were administered ketamine. Blood samples were collected from all five subjects. Blood samples were analysed to determine ketamine and ketamine metabolite levels, and each subject was assessed post-administration to determine the effectiveness of the treatment.
The study spanned a total of 30 days (not counting initial contact and prescreening). Prescreening of all subjects was conducted by phone, and subjects recorded self-report measures, including the Sensitivity to Punishment and Sensitivity to Reward Questionnaire (SPSRQ) and the Gambling Related Cognitions Questionnaire. Prior to beginning treatment, each subject completed the Beck Depression Inventory (BDI) to determine a baseline depression score. Total scores of 0-13 are minimal, 14-19 are mild, 20-28 are moderate, and 29-63 are severe (Beck, Steer, and Brown, 1996).
On Day 3, each subject returned on-site and was administered ketamine. 100 mg of racemic ketamine was administered in as sublingual lozenges.
The remaining follow-up sessions were completed online. Follow-up 1 was completed on Day 4, Follow-up 2 on Day 14, and Follow-up 3 on Day 30. At each follow-up session, the same self-report measures and behavioural tasks were completed.
The PGSI classifies potential problem gamblers in four categories based on scores. A score of 0 is a non-problem gambler, a score of between 1 and 2 is a low-risk gamber (mild), a score of 3-7 is a moderate-risk gambler (moderate), and a score of 8 or above is a problem gambler (severe). Subject G4 was classified as a moderate-risk (moderate) gambler pre-administration, and at the two-week follow up was classified as a low-risk (mild) gambler. Subject G5 was classified as a problem (severe) gambler pre-administration, and at the two-week follow up was classified as a low-risk (mild) gambler

[2] = system: subjects with gambling disorder; test: Cue reactivity task: picture pleasure rating and gambling desire rating, Example 7
[3] = system: subjects with binge eating disorder; test: Adverse events, KSET, Example 8; conditions: three binge eating disorder subjects; 100 mg racemic ketamine sublingual
subjects with CSBD = test: Sensitivity to reward (SPSRQ), Example 10; conditions: for Sensitivity to Reward at 2-week follow up: after 100 mg racemic ketamine sublingual; for Sensitivity to Reward, pre-administration: baseline before 100 mg racemic ketamine sublingual; for % change in Sensitivity to Reward: pre-administration to 2-week follow up, 100 mg racemic ketamine sublingual
Protocol: Reward sensitivity was assessed using the SPSRQ. Behavioural tasks, EEG measurements, and subjective experience assessments were also completed.
A study was completed on the use of ketamine to treat CSBD. Subjects were assessed for CSBD using the Problematic Pornography Use Scale (PPUS) and were included if they received an PPUS score greater than 3. Three subjects in total were included (CSB1-CSB3). All three were administered sublingual lozenges comprising 100 mg of racemic ketamine.
The treatment protocol commenced in the same way as disclosed in the ketamine in subjects with gambling disorder study completed in EXAMPLE 7, with the exceptions outlined as follows: No behavioural tasks were completed. Self-report measures completed during EXAMPLE 10 included the Emotional Intimacy Measure, the Childhood Trauma Questionnaire, the Generalised Anxiety Disorder-7 (GAD-7), the Morningness-Eveningness Questionnaire (MEQ), and the Problematic Pornography Questionnaire (PPQ), the Acceptance and Action Questionnaire, and the Psychological and Interpersonal Relationship Scales (PAIRS).

total plasma leptin = test: Total plasma leptin, Example 8; conditions: for total plasma leptin at 90 minutes post-lozenge / % change in total leptin: 100 mg racemic ketamine sublingual; for total plasma leptin, pre-administration: baseline before 100 mg racemic ketamine sublingual; for % change in total leptin: pre-administration to 90 minutes post-lozenge
Protocol: Blood samples were collected from all three subjects. Blood samples were analysed to determine ketamine and ketamine metabolite levels, as well as the hormones leptin and ghrelin. Self-report measures were conducted.
The treatment protocol commenced in substantially the same way as disclosed in the ketamine in subjects with gambling disorder study completed in EXAMPLE 7, with the exceptions outlined as follows: No behavioural tasks were completed. Blood samples collected every 10 minutes from the time of administration to 90 minutes post-administration were additionally analysed for leptin and ghrelin. Self-report measures included the Binge Eating Scale, the Adult Attachment Interview (AAI), a 20 question interview about the subject's recollections of their childhood (Sykes and Turner, 2015); the Childhood Trauma Questionnaire; the Morningness-Eveningness Questionnaire (MEQ), a 19-item questionnaire designed to assess when a respondent prefers to wake up or start sleep (American Thoracic Society, 2022); the DSM-5 Binge Eating Disorder diagnostic criteria; and the SPSRQ.
Changes in ghrelin and leptin were measured. Ghrelin stimulates appetite and food intake, increases fat deposition, and releases growth hormone. Obese binge eating disorder subjects often have reduced plasma ghrelin, possibly due to the downregulation of ghrelin from excess eating or body fat (Atalayer et al. 2013). Leptin forms a negative feedback loop between fat cells and the hypothalamus, wherein leptin secretion signals the hypothalamus to inhibit food intake and increase energy expenditure. Increased leptin may aid in reducing appetite cravings associated with binge eating disorder (Obradovic et al. 2021).

[4] = baseline before 100 mg racemic ketamine sublingual
[5] = one-week follow up after 100 mg racemic ketamine sublingual
[6] = two-week follow up after 100 mg racemic ketamine sublingual

`CNC1(c2ccccc2Cl)CCCCC1=O` (racemic) [ketamine, 2-(2-chlorophenyl)-2-(methylamino)-cyclohexanone] was tested, and the “PGSI score at 2-week follow up” value ([1]; subject G1) was 5, the “PGSI score, pre-administration” value ([1]; subject G1) was 4 and the “% change in PGSI score” value ([1]; subject G1) was “+25%”. For the same molecule, the “PGSI score at 2-week follow up” value ([1]; subject G2) was 11, the “PGSI score, pre-administration” value ([1]; subject G2) was 16 and the “% change in PGSI score” value ([1]; subject G2) was −31.25%. The “PGSI score at 2-week follow up” value ([1]; subject G3) was 18, the “PGSI score, pre-administration” value ([1]; subject G3) was 21 and the “% change in PGSI score” value ([1]; subject G3) was −14.29%. For the same molecule, the “PGSI classification at two-week follow up” value ([1]; subject G4) was “low-risk (mild) gambler (a score of between 1 and 2 is a low-risk gamber (mild))”, the “PGSI score at 2-week follow up” value ([1]; subject G4) was 1 and the “PGSI classification, pre-administration” value ([1]; subject G4) was “moderate-risk (moderate) gambler (a score of 3-7 is a moderate-risk gambler (moderate))”. For the same molecule, the “PGSI score, pre-administration” value ([1]; subject G4) was 3, the “% change in PGSI score” value ([1]; subject G4) was −66.67% and the “PGSI classification at two-week follow up” value ([1]; subject G5) was “low-risk (mild) gambler (a score of between 1 and 2 is a low-risk gamber (mild))”. For the same molecule, the “PGSI score at 2-week follow up” value ([1]; subject G5) was 2, the “PGSI classification, pre-administration” value ([1]; subject G5) was “problem (severe) gambler (a score of 8 or above is a problem gambler (severe))” and the “PGSI score, pre-administration” value ([1]; subject G5) was 11. For the same molecule, the “% change in PGSI score” value ([1]; subject G5) was −81.82%, the “gambling desire rating, mean” value [2, 4] was 2.25 and the “picture pleasure rating, mean” value [2, 4] was 3.25. For the same molecule, the “gambling desire rating, mean” value [2, 5] was −0.25, the “picture pleasure rating, mean” value [2, 5] was 1.33 and the “gambling desire rating, mean” value [2, 6] was −0.25. The “picture pleasure rating, mean” value [2, 6] was −0.83, the “course of adverse events” value [3] was “All adverse events were transient, and resolved two hours post-lozenge” and the overall tolerability [3] was “well-tolerated, with no drop-outs”. The “unexpected adverse reactions (KSET)” value [3] was “no unexpected adverse reactions were observed”, the “Sensitivity to Reward at 2-week follow up” value (subjects with CSBD; subject CSB1) was 9 and the “Sensitivity to Reward, pre-administration” value (subjects with CSBD; subject CSB1) was 10. The “% change in Sensitivity to Reward” value (subjects with CSBD; subject CSB1) was −10%, the “Sensitivity to Reward at 2-week follow up” value (subjects with CSBD; subject CSB2) was 15 and the “Sensitivity to Reward, pre-administration” value (subjects with CSBD; subject CSB2) was 15. For the same molecule, the “Sensitivity to Reward at 2-week follow up” value (subjects with CSBD; subject CSB3) was 9, the “Sensitivity to Reward, pre-administration” value (subjects with CSBD; subject CSB3) was 17 and the “% change in Sensitivity to Reward” value (subjects with CSBD; subject CSB3) was −47.06%. For the same molecule, the “total plasma leptin at 90 minutes post-lozenge” value (total plasma leptin; subject BE1) was 9.11 ng/mL, the “total plasma leptin, pre-administration” value (total plasma leptin; subject BE1) was 7.10 ng/mL and the “% change in total leptin” value (total plasma leptin; subject BE1) was “+28.31%”. The “total plasma leptin at 90 minutes post-lozenge” value (total plasma leptin; subject BE2) was 27.98 ng/mL, the “total plasma leptin, pre-administration” value (total plasma leptin; subject BE2) was 21.88 ng/mL and the “% change in total leptin” value (total plasma leptin; subject BE2) was “+27.88%”. The “total plasma leptin at 90 minutes post-lozenge” value (total plasma leptin; subject BE3) was 11.23 ng/mL, the “total plasma leptin, pre-administration” value (total plasma leptin; subject BE3) was 12.36 ng/mL and the “% change in total leptin” value (total plasma leptin; subject BE3) was −9.14%.

Source: US20240197652A1, “KETAMINE IN THE TREATMENT OF […]” (Awakn LS Europe Holdings Limited, priority 2021, published 2024)
